Experimental data published in US8377967B2, “Piperidine derivative” (Nippon Zoki Pharmaceutical Co., Ltd., priority 2008, dated 2013).
Where a name gives a salt, the structure may show the parent alone.

What follows are compounds tested against human histamine H1 receptor (Homo sapiens, UniProt P35367) (assay: In vitro human histamine H1 receptor binding experiment ([3H]pyrilamine)). Conditions: HEK293A cells stably expressing human histamine H1 receptor, [3H]pyrilamine 3 nmol/L, room temperature 60 minutes.
Sequence of human histamine H1 receptor (P35367 whole entry): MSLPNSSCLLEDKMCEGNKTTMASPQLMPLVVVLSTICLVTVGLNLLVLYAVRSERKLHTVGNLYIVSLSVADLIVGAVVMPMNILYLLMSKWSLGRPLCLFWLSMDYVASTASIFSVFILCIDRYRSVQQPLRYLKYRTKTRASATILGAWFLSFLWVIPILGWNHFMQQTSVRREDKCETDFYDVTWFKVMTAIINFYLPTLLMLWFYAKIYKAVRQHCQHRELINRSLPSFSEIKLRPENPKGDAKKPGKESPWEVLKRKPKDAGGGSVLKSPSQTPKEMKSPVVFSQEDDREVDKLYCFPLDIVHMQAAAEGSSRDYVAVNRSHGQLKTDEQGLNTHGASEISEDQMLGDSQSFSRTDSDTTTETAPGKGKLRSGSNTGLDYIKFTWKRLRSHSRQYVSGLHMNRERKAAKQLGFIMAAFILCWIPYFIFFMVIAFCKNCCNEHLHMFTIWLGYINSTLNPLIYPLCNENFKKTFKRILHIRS
Description: Recombinant human histamine H1 receptor plasmid (prepared by Invitrogen) was transfected to HEK293A cells with Lipofectamine 2000 (manufactured by Invitrogen). Cells stably expressing human histamine H1 receptor were screened with Geneticin (manufactured by Invitrogen). The cells were continued to be cultured using a Dulbecco's Modified Eagle Medium containing 10% fetal bovine serum, 0.1 mmol/L MEM Non-Essential Amino Acids Solution, 2 mmol/L L-glutamine and 0.7 mg/mL Geneticin in a 5% CO2 incubator at 37° C. The cells stably expressing human histamine H1 receptor were prepared using 50 mmol/L Tris-HCl (pH 7.5) (hereinafter referred to as buffer) containing 0.1% bovine serum albumin, so as to have a concentration of 3×10^6 cells/mL, to give a cell sample preparation. Fifty microliters of the buffer, 50 μl of a test substance solution at various concentrations, and 50 μL of [^3H]pyrilamine solution (final concentration: 3 nmol/L) were added to each of the wells on the 96-well plate, and stirred, and 100 μL of the cell sample preparation was then added thereto (at a concentration of 3×10^5 cells/well) to initiate the reaction.
The cells were incubated at room temperature for 60 minutes, and then filtered on UniFilter GF/C plate (manufactured by Packard) immersed in 0.5% polyethyleneimine using a cell harvester (IH-110, manufactured by INNOTECH CORPORATION), to stop the reaction, and the plate was washed with the buffer. The plate after washing was sufficiently dried, and 20 μL of a scintillator (MaxiLight, manufactured by Hidex) was added thereto, and count per minute (cpm) was measured with a multi-labeled microplate reader (Plate Chameleo II, manufactured by Hidex). The nonspecific binding was cpm in a case where 30 μmol/L pyrilamine was added. The experiments were carried out at n=3, and at least repeated 3 times.

Row | Structure (SMILES) | IC50 [nM]
1 | CCOC(=O)c1ccc2c(c1)C(=C1CCN(C)CC1)c1sccc1CC2 [Compound 115, Ethyl 4-(1-methylpiperidin-4-ylidene)-9,10-dihydro-4H-3-thiabenzo[f]azulene-6-carboxylate] | 16.6
2 | COC(=O)Cc1ccc2c(c1)C(=C1CCN(C)CC1)c1ccsc1CO2 [Compound 116, Methyl[4-(1-methylpiperidin-4-ylidene)-4,10-dihydro-9-oxa-1-thiabenzo[f]azulen-6-yl]acetate hydrochloride] | 3.95
3 | CN1CCC(=C2c3cc(C(=O)O)ccc3CCc3ccsc32)CC1 [Compound 121, 4-(1-Methylpiperidin-4-ylidene)-9,10-dihydro-4H-3-thiabenzo[f]azulene-6-carboxylic acid] | 94.7
4 | CCCN1CCC(=C2c3ccccc3CCc3sc(C(=O)OCC)cc32)CC1 [Compound 133, Ethyl 4-(1-propylpiperidin-4-ylidene)-9,10-dihydro-4H-1-thiabenzo[f]azulene-2-carboxylate hydrochloride] | 17
5 | CCOC(=O)Cc1ccc2c(c1)C(=C1CCN(C)CC1)c1sccc1CC2 [Compound 147, Ethyl[4-(1-methylpiperidin-4-ylidene)-9,10-dihydro-4H-3-thiabenzo[f]azulen-6-yl]acetate hydrochloride] | 4.04
6 | CCOC(=O)C(C)(C)c1cc2c(s1)CCc1ccccc1C2=C1CCN(CC)CC1 [Compound 154, Ethyl 2-[4-(1-ethylpiperidin-4-ylidene)-9,10-dihydro-4H-1-thiabenzo[f]azulen-2-yl]-2-methylpropionate hydrochloride] | 25.6
7 | COC(=O)CCCCc1ccc2c(c1)C(=C1CCN(C)CC1)c1sccc1CO2 [Compound 156, Methyl 5-[4-(1-methylpiperidin-4-ylidene)-4,10-dihydro-9-oxa-3-thiabenzo[f]azulen-6-yl]valerate hydrochloride] | 9.66
8 | CN1CCC(=C2c3cc(CCCCC(=O)O)ccc3OCc3ccsc32)CC1 [Compound 157, 5-[4-(1-Methylpiperidin-4-ylidene)-4,10-dihydro-9-oxa-3-thiabenzo[f]azulen-6-yl]valeric acid] | 90.5
9 | CCOC(=O)C=Cc1cc2c(s1)CCc1ccccc1C2=C1CCN(CC)CC1 [Compound 158, Ethyl 3-[4-(1-ethylpiperidin-4-ylidene)-9,10-dihydro-4H-1-thiabenzo[f]azulen-2-yl]acrylate] | 47
10 | CCOC(=O)c1ccc2c(c1)C(=C1CCN(CC)CC1)c1sccc1CC2 [Compound 160, Ethyl 4-(1-ethylpiperidin-4-ylidene)-9,10-dihydro-4H-3-thiabenzo[f]azulene-6-carboxylate] | 5.58
11 | CC(OC(=O)OC1CCCCC1)OC(=O)c1cc2c(s1)CCc1ccccc1C2=C1CCN(C)CC1 (stereo not drawn) [Compound 176, 1-Cyclohexyloxycarbonyloxyethyl 4-(1-methylpiperidin-4-ylidene)-9,10-dihydro-4H-1-thiabenzo[f]azulene-2-carboxylate hydrochloride] | 72.7
12 | CCOCCN1CCC(=C2c3ccccc3CCc3sc(C(=O)OCC)cc32)CC1 [Compound 181, Ethyl 4-[1-(2-ethoxyethyl)piperidin-4-ylidene]-9,10-dihydro-4H-1-thiabenzo[f]azulene-2-carboxylate hydrochloride] | 13

Other lines, results leading:

Row | IC50 [nM] | Structure (SMILES)
13 | 13.4 | OCCc1ccc2c(c1)C(=C1CCN(CCO)CC1)c1sccc1CO2 [Compound 122, 2-{4-[1-(2-Hydroxyethyl)piperidin-4-ylidene]-4,10-dihydro-9-oxa-3-thiabenzo[f]azulen-6-yl}ethanol]
14 | 3.12 | COC(=O)CCCc1ccc2c(c1)C(=C1CCN(C)CC1)c1sccc1CO2 [Compound 123, Methyl 4-[4-(1-methylpiperidin-4-ylidene)-4,10-dihydro-9-oxa-3-thiabenzo[f]azulen-6-yl]butyrate hydrochloride]
15 | 6.77 | CCN1CCC(=C2c3cc(CCCC(=O)OC)ccc3OCc3ccsc32)CC1 [Compound 141, Methyl 4-[4-(1-ethylpiperidin-4-ylidene)-4,10-dihydro-9-oxa-3-thiabenzo[f]azulen-6-yl]butyrate hydrochloride]
16 | 90.8 | COC(=O)Cc1ccc2c(c1)C(=C1CCN(CCCN3CCCCC3)CC1)c1sccc1CO2 [Compound 163, Methyl {4-[1-(3-piperidin-1-yl-propyl)piperidin-4-ylidene]-4,10-dihydro-9-oxa-3-thiabenzo[f]azulen-6-yl}acetate dihydrochloride]
17 | 11 | COC(=O)Cc1ccc2c(c1)C(=C1CCN(CCNC(N)=O)CC1)c1sccc1CO2 [Compound 174, Methyl {4-[1-(2-ureidoethyl)piperidin-4-ylidene]-4,10-dihydro-9-oxa-3-thiabenzo[f]azulen-6-yl}acetate]
18 | 8.76 | COC(=O)CCCc1ccc2c(c1)C(=C1CCN(CCCC(C)=O)CC1)c1sccc1CO2 [Compound 187, Methyl 4-{4-[1-(4-oxopentyl)piperidin-4-ylidene]-4,10-dihydro-9-oxa-3-thiabenzo[f]azulen-6-yl}butyrate hydrochloride]
19 | 13.1 | COC(=O)Cc1ccc2c(c1)C(=C1CCN(CCCNS(C)(=O)=O)CC1)c1sccc1CO2 [Compound 193, Methyl {4-[1-(3-methanesulfonylaminopropyl)piperidin-4-ylidene]-4,10-dihydro-9-oxa-3-thiabenzo[f]azulen-6-yl}acetate hydrochloride]
20 | 11.7 | COC(=O)CCc1ccc2c(c1)C(=C1CCN(CCNS(C)(=O)=O)CC1)c1sccc1CO2 [Compound 195, Methyl 3-{4-[1-(2-methanesulfonylaminoethyl)piperidin-4-ylidene]-4,10-dihydro-9-oxa-3-thiabenzo[f]azulen-6-yl}propionate hydrochloride]

What follows are compounds tested against T1, cerebral H1 receptor (Mus musculus, UniProt P70174) (assay: Murine cerebral H1 receptor occupying content (ex vivo)). Conditions: ICR male mouse, oral administration, brain excised after 1 hour, 3H-pyrilamine binding in brain homogenate; larger = lower brain transfer; read-out: ID50 (the source's name).
T1 construct: the entire brain, except for cerebellum and medulla oblongatae, was rapidly excised; from tissue; host or cells: brain homogenate (without cerebellum and medulla oblongata) of orally dosed ICR male mice
T1 sequence (P70174 whole entry): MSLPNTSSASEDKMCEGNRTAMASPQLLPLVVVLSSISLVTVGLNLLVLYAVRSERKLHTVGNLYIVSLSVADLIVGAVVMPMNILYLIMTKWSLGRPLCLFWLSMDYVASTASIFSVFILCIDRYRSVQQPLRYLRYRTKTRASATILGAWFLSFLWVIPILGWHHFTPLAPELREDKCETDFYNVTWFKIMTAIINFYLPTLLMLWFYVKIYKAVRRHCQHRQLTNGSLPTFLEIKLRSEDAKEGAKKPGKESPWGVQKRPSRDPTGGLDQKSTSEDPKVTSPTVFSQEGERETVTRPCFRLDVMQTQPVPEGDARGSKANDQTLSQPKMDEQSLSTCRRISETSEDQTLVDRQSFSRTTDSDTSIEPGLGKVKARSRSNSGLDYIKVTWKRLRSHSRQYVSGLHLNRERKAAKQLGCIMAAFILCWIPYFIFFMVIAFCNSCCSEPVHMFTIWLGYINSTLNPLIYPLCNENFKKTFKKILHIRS
Format: in vivo
Description: A 6-week-old ICR male mouse was previously fed for one week or more by allowing the mouse to take a solid feed and tap water ad libitum, under the environment setting of a temperature of 22° C., humidity of 55% and an artificial illumination of 12 hours a day, and the mouse was fasted overnight to be used for the experiment. A substance to be tested was dissolved with water for injection or suspended in 0.5% carboxymethyl cellulose solution, and the solution or suspension was orally administered to the mouse (dose volume: 0.1 mL/10 g body weight). After 1 hour from the oral administration, the mouse was decapitated, and the entire brain, except for cerebellum and medulla oblongatae, was rapidly excised. The excised brain tissue was homogenized with Polytron (manufactured by Kinematica) in an ice-cooled 50 mmol/L phosphate buffered saline (pH 7.4, 100 mg/1.9 mL).
To a test tube for reaction (TPX-Tube) were added 180 μL of the brain homogenate, and 10 μL of ^3H-pyrilamine solution (final concentration: 2 nmol/L) and 10 μL of a non-labeled pyrilamine solution (final concentration: 200 μmol/L) or a 50 mmol/L phosphate buffered saline, and the mixture was incubated at room temperature for 45 minutes, and 2.0 mL of an ice-cooled, 50 mmol/L phosphate buffered saline was then added thereto to stop the reaction. The reaction mixture was filtered with a GF/B filter (manufactured by […]), and the […] was placed in a vial and dried overnight at 60 degrees. After drying, 10 mL of a scintillator (AL-1, toluene-based, manufactured by DOJINDO LABORATORIES) was added to the product, and the disintegration per minute (dpm) was measured with a liquid scintillation counter (manufactured by Packard, U.S.A., TRI-CARB 2700TR) (5 minutes/vial).

Row | Structure (SMILES) | ED50 [mg/kg]
21 | CN1CCC(=C2c3ccccc3CCc3sc(C(=O)O)cc32)CC1.Cl [Compound 4, [4-(1-Methylpiperidin-4-ylidene)-9,10-dihydro-4H-1-thiabenzo[f]azulen-2-yl]carboxylic acid hydrochloride] | 43.1

Same assay, conditions: ID50 of cerebral receptor binding test (Table 20) divided by ED50 of vascular hyperpermeability test (Table 19)

Row | Structure (SMILES) | ID50 (mg/kg)/ ED50 (mg/kg)
22 | CN1CCC(=C2c3ccccc3CCc3sc(C(=O)O)cc32)CC1.Cl [Compound 4, [4-(1-Methylpiperidin-4-ylidene)-9,10-dihydro-4H-1-thiabenzo[f]azulen-2-yl]carboxylic acid hydrochloride] | 62.5

What follows are compounds tested on histamine-induced vascular hyperpermeability reaction (assay: Rat histamine-induced vascular hyperpermeability reaction (in vivo antihistamine action)). Conditions: SD male rat, oral administration 1 hour before intracutaneous histamine, leaked Evans Blue pigment.
Description: An SD male rat (SPF) of 180 g in weight was previously fed for one week or more by allowing the rat to take a solid feed and tap water ad libitum, under the environment setting of a temperature of 22° C., humidity of 55% and an artificial illumination of 12 hours a day (light phase 8 am to 8 pm), and the rat was fasted overnight to be used for the experiment. Histamine•dihydrochloride (hereinafter referred to as histamine) and Evans Blue were used by dissolving each in physiological saline upon use. A substance to be tested was dissolved in water for injection or suspended in 0.5% carboxymethyl cellulose sodium, and the rat was orally administered with the solution or suspension (dose volume: 5 mL/kg body weight). After 1 hour from the administration, the physiological saline and the histamine solution were each intracutaneously injected to two locations (20 μg/0.05 ml/location) each on a back part of the rat of which hair was sheared with an electric clipper while anesthetizing with an ether. A 0.5% Evans Blue-containing physiological saline was injected intravenously to the tail of the rat (1 mL/200 g body weight) immediately before the intracutaneous injection of the histamine.
After 30 minutes, the animal was decapitated, and allowed to bleed lethally, and the skin was removed to measure an amount of leaked pigment in the blue-stained portion. The measurement of the amount of leaked pigment was carried out as follows. Skins of the pigment leaking site were cut out at two locations, 1 mL of a 2 mol/L aqueous potassium hydroxide solution was added thereto in a test tube, and the test tube was allowed to stand overnight at 37° C. to dissolve. Thereafter, 6 mL of a 1:3 mixed solution of 0.67 mol/L phosphoric acid and acetone was added to the solution, and the mixture was vigorously shaken for 10 minutes. Thereafter, the mixture was filtered, and the absorbance of the filtrate at 620 nm was measured. The absorbance obtained from the two locations of the sites injected with physiological saline, as blank value, was used for a compensation. The amount of leaked pigment was calculated from the calibration curve of Evans Blue at 620 nm.

Row | Structure (SMILES) | ED50 [mg/kg]
23 | CN1CCC(=C2c3ccccc3CCc3sc(C(=O)O)cc32)CC1.Cl [Compound 4, [4-(1-Methylpiperidin-4-ylidene)-9,10-dihydro-4H-1-thiabenzo[f]azulen-2-yl]carboxylic acid hydrochloride] | 0.69
24 | CN1CCC(=C2c3ccccc3CC(=O)c3sccc32)CC1 [Ketotifen, reference compound] | 0.54
